The source of these data is PubChem BioAssay (NCI).

The structures appear in SMILES notation. Where “and” joins values, the source holds several entries; their conditions need not be identical. Identical values can stand only once.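 Each compound was tested at five concentrations against cells in 96-well plates for 48 hours. At the GI50, growth is halved. Definition used: TGI = concentration required for complete inhibition of growth.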 Where only a bound is given, the exact number is not on record here.

The term GI50 denotes the concentration giving 50% growth inhibition. The TGI is the concentration giving total growth inhibition. High values mean lower sensitivity of the cells, low ones greater sensitivity of the cells.

Holding throughout (assay): DTP human tumour cell line panel, 48 h
Experiment [1] deals with HOP-92 NSCLC.
The subject of experiment [2] is CCRF-CEM leukemia.
For experiment [3], the system named is SK-MEL-2 melanoma.
The test system of experiment [4] is SK-MEL-28 melanoma.
Experiment [5] concerns NCI-H23 lung.
Experiment [6] concerns SK-MEL-5 melanoma.
In experiment [7] the test system is A549 NSCLC.
Experiment [8] relates to KM12 colon.
Experiment [9] concerns HCT-15 colon.
Experiment [10] concerns UACC-257 melanoma.

Take `C1=C/COCc2cc(ccc2OCCN2CCCC2)Nc2nccc(n2)-c2ccc(o2)COC/1`: the GI50 was 2.21 µM in [1]; 2.06 µM in experiment [2]; 1.46 µM in experiment [3]; 1.65 µM in experiment [4]; 1.61 µM in [5]; 1.79 µM in [6]. Besides, the GI50 in experiment [7] was 2.23 µM; in [8], 0.451 µM; in experiment [9], 1.11 µM; in experiment [10] it was 1.52 µM. The total growth inhibition concentration (TGI) in experiment [1] is 9.47 µM; in experiment [2], 7.2 µM; in experiment [3], 4 µM; in experiment [4] it was 5.26 µM; in experiment [5], 5.24 µM; in experiment [6] it was 4.07 µM. The TGI turned out to be 12 µM in experiment [7], 9.37 µM in experiment [8], 9.11 µM in [9] and 3.43 µM in [10].

Consider `CCCn1cnc2c(SCC(=O)O)nc(N)nc21`, for which the TGI in [1], in experiment [2], in [3], in experiment [4], in experiment [5] and in [6] was over 100 µM throughout. The TGI in experiment [7], in [8], in [9] and in [10] was over 100 µM in each case.

Consider `CNc1ccc2ncccc2c1[N+](=O)[O-]`, for which the TGI in [1], in experiment [2], in experiment [3], in [4], in [5] and in experiment [6] was over 100 µM in each case. Also, the TGI in [7], in [8], in experiment [9] and in experiment [10] was over 100 µM each time.

Turning to `O=C(Nc1ccc(-n2ccc3c(NC(=O)c4ccccc4)ncnc32)cc1)c1cccc(C(F)(F)F)c1`, the GI50 in [1] is 7.51 µM; in experiment [2] it was 0.346 µM; in experiment [3], 1.47 µM; in experiment [4], 10.6 µM; in [5], 13.3 µM; in experiment [6], 0.232 µM. For the same molecule, the GI50 is 0.966 µM in [7], 0.626 µM in experiment [8], 0.0643 µM in experiment [9] and 10.2 µM in experiment [10]. The concentration for total growth inhibition (TGI) in experiment [1] amounted to 26 µM; in experiment [2] it was 25.2 µM; in [3], 13.5 µM; in experiment [4] it was 24.9 µM; in experiment [5] it was 35.7 µM; in experiment [6], 15.8 µM. Moreover, the TGI in experiment [7] came out at 21.1 µM; in experiment [8], 16.7 µM; in [9], 24.8 µM; in experiment [10], 32.1 µM.

Turning to `O=c1cc(-c2ccc(O)cc2)oc2cc(O[C@@H]3O[C@H](CO)[C@@H](O)[C@H](O)[C@H]3O)cc(O)c12`, the TGI in experiment [1], in experiment [2], in [3], in [4], in [5] and in [6] was over 100 µM throughout. For the same molecule, the TGI in experiment [7], in [8], in experiment [9] and in experiment [10] was over 100 µM throughout.

As for `NNc1cnn(-c2ccccc2)c(=O)c1Cl`, the TGI in experiment [1], in [2], in experiment [3], in experiment [4], in experiment [5] and in experiment [6] was over 100 µM each time. In addition, the TGI in experiment [7], in [8], in [9] and in [10] was over 100 µM in each case.

As for `CNNC(=N\S(=O)(=O)c1cc(C)c(Cl)cc1SCc1ccccc1)/N=C/c1ccc([N+](=O)[O-])s1`, the GI50 in experiment [1] was 10.9 µM; in experiment [2], over 100 µM; in experiment [3], over 100 µM; in experiment [4], over 100 µM; in [5] it was over 100 µM; in experiment [6] it was 1.48 µM. Further, the GI50 in experiment [7] was 59.2 µM; in [8], 3.03 µM; in experiment [10], over 100 µM. The TGI was over 83.8 µM in experiment [1]; over 100 µM in [2]; over 100 µM in experiment [3]; over 100 µM in experiment [4]; over 100 µM in [5]; over 37.3 µM in experiment [6]. Besides, the total growth inhibition concentration (TGI) in experiment [7], in [8], in experiment [9] and in experiment [10] was over 100 µM each time.

For `N/C(=N\NS(=O)(=O)c1ccccc1)Oc1ccc(Br)cc1Br`, the TGI in [1], in [2], in [3], in experiment [4], in experiment [5] and in experiment [6] was over 100 µM throughout. Also, the TGI in [7], in [8], in [9] and in experiment [10] was over 100 µM throughout.

In the case of `CSc1ncc(Br)c(Sc2nc(N)nc3nc[nH]c23)n1`, the GI50 in experiment [1] is 0.456 µM; in experiment [2] it was 2.38 µM; in experiment [3], 1.12 µM; in [4], 6.63 µM; in experiment [5] it was 3.74 µM; in experiment [6], 3.12 µM. Further, the GI50 was 9.77 µM in experiment [7], 3.63 µM in experiment [8], 3.18 µM in experiment [9] and 3.23 µM in [10]. Also, the total growth inhibition concentration (TGI) is 5.23 µM in experiment [1]; 9.3 µM in [2]; 7.33 µM in [3]; 53 µM in experiment [4]; over 100 µM in experiment [5]; 36.1 µM in experiment [6]. Further, the TGI in experiment [7] turned out to be 71.1 µM; in experiment [8], 22.7 µM; in [9] it was 50.8 µM; in experiment [10], 37.9 µM.

For `CC(C)(O)/C=C/C(=O)[C@](C)(O)[C@H]1[C@H](O)C[C@@]2(C)[C@@H]3CC=C4[C@@H](C[C@H](O)C(=O)C4(C)C)[C@]3(C)C(=O)C[C@]12C`, the GI50 in experiment [1] was 0.255 µM; in experiment [2], 0.0462 µM; in [3] it was 0.0294 µM; in experiment [4] it was 0.028 µM; in [5] it was 0.462 µM; in [6] it was 0.0565 µM and 0.11 µM. The GI50 is 0.224 µM in [7]; 0.948 µM in experiment [8]; 0.0862 µM and 0.159 µM in experiment [9]. For the same molecule, the TGI in experiment [1] is 0.439 µM and 0.407 µM; in experiment [2] it was 0.62 µM and 3.04 µM; in experiment [3], 0.0829 µM and 0.131 µM; in [4], 0.0828 µM and 0.432 µM; in experiment [5], 15.5 µM; in [6] it was 0.682 µM and 2.44 µM. Moreover, the concentration for total growth inhibition (TGI) in experiment [7] was 16.5 µM; in [8], 25 µM; in experiment [10], 0.598 µM and 2.81 µM.
